BindingDB's records for doi:10.1074/jbc.M113.518506 (Rudjer Boskovic Institute, 2013)

target: T1, Solute carrier organic anion transporter family member (Danio rerio, UniProt A0A8M9PU70); test: Oatp1d1 Transport Assay
T1 sequence (A0A8M9PU70 whole entry): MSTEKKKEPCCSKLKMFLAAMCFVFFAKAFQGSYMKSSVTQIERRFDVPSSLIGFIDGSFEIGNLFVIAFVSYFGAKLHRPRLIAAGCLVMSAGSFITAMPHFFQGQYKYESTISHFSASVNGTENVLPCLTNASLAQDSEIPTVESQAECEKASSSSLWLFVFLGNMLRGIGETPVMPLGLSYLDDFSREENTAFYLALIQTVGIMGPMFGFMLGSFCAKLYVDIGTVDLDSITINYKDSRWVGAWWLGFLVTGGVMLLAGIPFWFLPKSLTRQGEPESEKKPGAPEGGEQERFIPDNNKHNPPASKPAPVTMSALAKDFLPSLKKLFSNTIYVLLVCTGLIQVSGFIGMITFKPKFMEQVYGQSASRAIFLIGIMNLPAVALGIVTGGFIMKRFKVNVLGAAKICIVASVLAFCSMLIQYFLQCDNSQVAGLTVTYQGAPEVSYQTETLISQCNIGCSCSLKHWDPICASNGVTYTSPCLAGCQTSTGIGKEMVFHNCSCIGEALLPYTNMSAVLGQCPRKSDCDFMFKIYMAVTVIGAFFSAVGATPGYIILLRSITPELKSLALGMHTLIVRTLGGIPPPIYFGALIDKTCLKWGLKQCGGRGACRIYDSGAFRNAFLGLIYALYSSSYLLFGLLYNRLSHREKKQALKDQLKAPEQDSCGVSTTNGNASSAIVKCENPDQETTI
Procedure: (§1) In the inhibition experiments, the cells were preincubated for 20 s with test compounds, followed by a 5-min incubation with [3H]E3S (5 nM) or 30-min incubation with LY (5 μM).

Row | Compound | Ki [µM]
1 | C[C@]12C[C@H](O)[C@H]3[C@@H](CCC4=CC(=O)CC[C@@]43C)[C@@H]1CC[C@@H]2C(=O)CO [11beta,21-dihydroxypregn-4-ene-3,20-dione] | 105
2 | C[C@]12CCC(=O)C=C1CC[C@@H]1[C@@H]2CC[C@]2(C)C(=O)CC[C@@H]12 [Androst-4-en-3,17-dione, 2] | 3.78
3 | C[C@H](CCC(=O)O)[C@H]1CC[C@H]2[C@@H]3CC[C@@H]4C[C@H](O)CC[C@]4(C)[C@H]3C[C@H](O)[C@]12C [Deoxycholic Acid] | 9.94
4 | C[C@H](CCC(=O)NCCS(=O)(=O)O)[C@H]1CC[C@H]2[C@@H]3[C@H](O)C[C@@H]4C[C@H](O)CC[C@]4(C)[C@H]3CC[C@]12C | 3.4
5 | C[C@]12CC[C@H]3[C@@H](CCC4=CC(=O)CC[C@@]43C)[C@@H]1CC[C@@H]2O [Testosterone, 1] | 30
6 | CC(C)OC(=O)C(C)(C)Oc1ccc(C(=O)c2ccc(Cl)cc2)cc1 [Finofibrate] | 54.4
7 | CCCN(CCC)S(=O)(=O)c1ccc(C(=O)O)cc1 | 26
8 | C[C@]12CCC(=O)C[C@@H]1CC[C@@H]1[C@@H]2CC[C@]2(C)[C@@H](O)CC[C@@H]12 [DHT] | 23.4
9 | C[C@]12CC[C@@H]3c4ccc(OS(=O)(=O)O)cc4CC[C@H]3[C@@H]1CCC2=O [Estrone Sulphate] | 1.01
10 | N[C@@H](Cc1cc(I)c(Oc2ccc(O)c(I)c2)c(I)c1)C(=O)O [triothyrone] | 42.7
11 | CCCCC[C@H](O)/C=C/[C@H]1[C@H](O)CC(=O)[C@@H]1C/C=C\CCCC(=O)O [DINOPROSTONE] | 227
12 | CO[C@H]1/C=C/O[C@@]2(C)Oc3c(C)c(O)c4c(c3C2=O)C(=O)/C(=C/NN2CCN(C)CC2)C(=C4O)NC(=O)/C(C)=C\C=C\[C@H](C)[C@H](O)[C@@H](C)[C@@H](O)[C@@H](C)[C@H](OC(C)=O)[C@@H]1C [Rifampicin] | 12.7
13 | C[C@H](CCC(=O)O)[C@H]1CC[C@H]2[C@@H]3[C@H](O)C[C@@H]4C[C@H](O)CC[C@]4(C)[C@H]3C[C@H](O)[C@]12C [Cholic Acid] | 141
14 | Cc1ccc(C)c(OCCCC(C)(C)C(=O)O)c1 [5-(2,5-dimethylphenoxy)-2,2-dimethylpentanoic acid] | 7.44
15 | C[C@]12CC[C@@H]3c4ccc(O)cc4CC[C@H]3[C@@H]1CC[C@@H]2O[C@@H]1O[C@H](C(=O)O)[C@@H](O)[C@H](O)[C@H]1O [17beta-Estradiol-17-(beta-D-glucuronide)] | 3.26
16 | CC(=O)[C@H]1CC[C@H]2[C@@H]3CCC4=CC(=O)CC[C@]4(C)[C@H]3CC[C@]12C | 9.06
17 | C=CC1=C(C)/C(=C/c2[nH]c(Cc3[nH]c(/C=C4\NC(=O)C(C)=C4C=C)c(C)c3CCC(=O)O)c(CCC(=O)O)c2C)NC1=O [BILIRUBIN] | 14.5
18 | C[C@]12CCC(=O)C=C1CC[C@@H]1[C@@H]2[C@@H](O)C[C@@]2(C)[C@H]1CC[C@]2(O)C(=O)CO [[3H]cortisol] | 120
19 | CN(Cc1cnc2nc(N)nc(N)c2n1)c1ccc(C(=O)N[C@@H](CCC(=O)O)C(=O)O)cc1 [MTX] | 222
20 | O=C1OC(c2ccc(O)c(S(=O)(=O)O)c2)(c2ccc(O)c(S(=O)(=O)O)c2)c2c(Br)c(Br)c(Br)c(Br)c21 [BROMOSULFOPHTHALEIN] | 2.99
21 | C[C@]12CC[C@@H]3c4ccc(O)cc4CC[C@H]3[C@@H]1CC[C@@H]2O [[2,4,6,7-3H]-17beta-estradiol] | 2.83
22 | CC[C@H](C)C(=O)O[C@H]1C[C@H](O)C=C2C=C[C@H](C)[C@H](CC[C@@H](O)C[C@@H](O)CC(=O)O)[C@H]21 [(3R,5R)-7-[(1S,2S,6S,8S,8aR)-6-hydroxy-2-methyl-8-{[(2S)-2-methylbutanoyl]oxy}-1,2,6,7,8,8a-hexahydronaphthalen-1-yl]-3,5-dihydroxyheptanoic acid] | 9.27
23 | CC(=O)C[C@H](c1ccccc1)c1c(O)c2ccccc2oc1=O [2-hydroxy-3-(3-oxo-1-phenylbutyl)-4H-chromen-4-one] | 0.36
24 | CC(C)(Oc1ccc(CCNC(=O)c2ccc(Cl)cc2)cc1)C(=O)O [Cedur] | 40.4
25 | CC[C@H]1OC(=O)[C@H](C)[C@@H](O[C@H]2C[C@@](C)(OC)[C@@H](O)[C@H](C)O2)[C@H](C)[C@@H](O[C@@H]2O[C@H](C)C[C@H](N(C)C)[C@H]2O)[C@](C)(O)C[C@@H](C)C(=O)[C@H](C)[C@@H](O)[C@]1(C)O | 882

target: T2, Solute carrier organic anion transporter family member [3-691] (Zebrafish, UniProt A0A0R4IW35); test: Oatp1d1 Transport Assay
T2 construct: 3-691
T2 sequence (A0A0R4IW35 whole entry): T1 sequence (A0A8M9PU70 whole entry)
Procedure: as §1

Row | Compound | Ki [µM]
26 | CCOC(=O)C(C)(C)Oc1ccc(Cl)cc1 [2-(4-Chlorophenoxy)-2-methylpropanoic acid ethyl ester] | 345
